Source: patent US8088395B2, “Phytol derived immunoadjuvants and their use in vaccine formulations” (priority 2004, dated 2012)

Columns and labels:
[1] = test system: phthalate; assay: Anti-phthalate antibody response by ELISA on phthalate-BSA coated plates; assay type: in vivo; settings: BALB/c mice primed intraperitoneally with phthalate-KLH emulsified in adjuvant, boosters at 10-day intervals, FIG. 6
Procedure: Experimental BALB/c mice (n=6) were grouped and primed intraperitoneally with phthalate-KLH conjugates emulsified in each adjuvant. Control groups of mice were immunized with phosphate buffered saline (PBS). Boosters were given at 10-day intervals. The mice were bled through retro-orbital veins five days after each immunization. (reference describing this type of experiments: So-Yon Lim and Swapan K. Ghosh, Immunology, 110:482-492, 2003)
ELISA was performed to assess anti-phthalate humoral responses on phthalate-BSA coated plates.

[2] = test system: BALB/c mice; assay: Toxicity in terms of splenomegaly and local granuloma; assay type: in vivo
Procedure: with adjuvants: A, (PBS); B, […]; C, Incomplete Freund's adjuvant (IFA); D, phytol; E, Complete Freund's adjuvant (CFA); and F, reduced phytol (phytanol).
The efficacy and side effects (such as toxicity, carcinogenic properties, and autoimmunogenic properties) of phytol and reduced phytol or phytanol (H-phytol) as adjuvants were compared with those of other known adjuvants that serve as the gold standard. Groups of 8-12 week old and gender matched BALB/c mice (n=21) were injected intraperitoneally with phytol (25-50 μl=20-40 mg/ml injected vaccine formulation) to determine toxicity. Similar studies were done with reduced phytol (phytanol) using 11 BALB/c mice. […].

[3] = test system: BALB/c mice; assay: Toxicity (LD50) after intraperitoneal injection; assay type: in vivo; settings: mg/ml injected vaccine formulation
Procedure: The efficacy and side effects (such as toxicity, carcinogenic properties, and autoimmunogenic properties) of phytol and reduced phytol or phytanol (H-phytol) as adjuvants were compared with those of other known adjuvants that serve as the gold standard. Groups of 8-12 week old and gender matched BALB/c mice (n=21) were injected intraperitoneally with phytol (25-50 μl=20-40 mg/ml injected vaccine formulation) to determine toxicity. Similar studies were done with reduced phytol (phytanol) using 11 BALB/c mice. LD50 for phytol is 40 mg/ml and for phytanol >40 mg/ml. For comparison, equivalent concentrations/volumes of other Freund's adjuvants, a mineral oil pristane and a control (phosphate buffered saline) were tested for toxicity in terms of splenomegaly and local granuloma.

[4] = test system: 2C3 B-cell lymphoma; assay: Induction of tumor-specific cytotoxic T cells (51Cr-release CTL assay); assay type: in vivo; settings: BALB/c mice, intraperitoneal adjuvant, live 2C3 tumor challenge, FIG. 8
Procedure: A number of mice (BALB/c mice) were divided into four groups of six mice each. Each group was treated with intraperitoneal injections of one of […] adjuvant preparations. The adjuvant preparations were selected from IFA, phytol, and phytanol. A control group was injected intraperitoneally with PBS. Five days after the initial injections, each of the mice was injected with a live tumor challenge (5×10^6 of 2C3 B-cell lymphoma). Splenocytes were obtained form the tumor-challenged mice at the eighth day after the initial injections. The collected splenocytes were stimulated with killed 2C3 cells in vitro for five days. Effector cells were harvested from this preparation after five days of incubation. The effector cells were used in the 51Cr-release cytotoxic T lymphocyte (CTL) assay according to the procedure published in Chakrabarti D. and Ghosh S. K.: Cellular Immunology 144:445-464, 1996; Santra S. and Ghosh S. K.: cancer Immunol. Immunotherpy, 44:291-300, 1997; Laxmanan S., Stuart G. W. and Ghosh S. K. Ghosh, Cancer Immunol. Immunotherapy, 50:437-444, 2001; So-Yon Lim and Swapan K. Ghosh, Immunology, 110:482-492, 2003.

[5] = test system: DNA; assay: Autoimmune reactivity assessment (anti-DNA antibody response); assay type: in vivo, mice
Excerpt: In each set of experiments, groups of 5 mice were primed with an environmental antigen phthalate (Lim and Ghosh, Immunology, 110:482-492, 2003) as a conjugate (mg/ml) with keyhole limpet hemocyanin (KLH) in different adjuvants as shown in FIG. 5.

Compound	anti-phthalate humoral response [1]	granuloma ([2]; mouse, in vivo)	splenomegaly ([2]; mouse, in vivo)	LD50 [3] [mg/mL]	induction of tumor-specific killer T cells [4]	anti-DNA response (autoimmune response) ([5]; mouse, in vivo)	granuloma ([2]; BALB/c mice, local granuloma)	splenomegaly ([2]; BALB/c mice, spleens, FIGS. 3A-3F)	splenomegaly ([2]; BALB/c mice, spleens, FIGS. 3A-3F, listed as Phytol)	anti-DNA response (autoimmune response) ([5]; mice primed with phthalate-KLH in the adjuvant, FIG. 5)
CC(C)CCC[C@@H](C)CCC[C@@H](C)CCCC(C)CCO (stereo partly drawn) [phytanol, 3,7,11,15-tetramethyl-1-hexadecanol]	better than commonly used CFA/IFA and is as good as commercially available Ribi Adjuvant system (RAS)	no granuloma	none	> 40	induction of tumor-specific killer T cells	statistically insignificant anti-DNA response				
C/C(=C\CO)CCC[C@H](C)CCC[C@H](C)CCCC(C)C [phytol]				40	induction of tumor-specific killer T cells		milder than CFA	comparable splenomegaly	milder than CFA	statistically insignificant anti-DNA response
